Reference: patent US9493420B2, “Quinoline derivatives and uses thereof” (Portland State University, priority 2005, dated 2016)

How the values were obtained:
P. falciparum strain W2 = details: cited from earlier work; note: key: S = sensitive; R = resistant; S/R = intermediate level of resistance
P. falciparum strain D6 = details: cited from earlier work; note: key: S = sensitive; R = resistant; S/R = intermediate level of resistance
[1] = tested on: P. falciparum strain FCR3; details: cited from earlier work; note: key: S = sensitive; R = resistant; S/R = intermediate level of resistance
P. falciparum strain Dd2 = details: cited from earlier work; note: key: S = sensitive; R = resistant; S/R = intermediate level of resistance
[2] = tested on: P. falciparum strain TM91C235; details: cited from earlier work; note: key: S = sensitive; R = resistant; S/R = intermediate level of resistance
[3] = tested on: D6 (CQ^S) P. falciparum strain; assay: In vitro fluorescence (Sybr Green I) growth inhibition assay, D6 strain; assay type: cell-based; details: Plasmodium falciparum, D6; Table 13; growth inhibition; read-out: IC50 (nM) D6 (CQ^S)
Text: (§1) One exemplary method for measuring inhibitory effects of RCQ compound in vitro has been reported by Smilkstein et al. (Antimicrob. Agents Chemother., 48(5):1803-1806, 2004). This method employs fluorescent detection of the level of parasitemia in cultured red blood cells and can be automated for high-throughput screening of antimalarial RCQs. This exemplary method allows the inhibitory agent (such as a RCQ) to be in contact with the parasite for an entire developmental cycle without purine starvation, which is in contrast to the traditional ^3H-hypoxanthine method (Desjardins et al., Antimicrob. Agents Chemother., 16(6):710-718, 1979). Briefly, to perform the Smilkstein et al. method, an initial parasitemia of approximately 0.2% is attained by adding uninfected red blood cells (RBCs) to a stock culture of Plasmodium sp.-infected RBCs. […] After a period of incubation (such as about 72 hours), a sufficient amount (e.g., 100 μL) of a fluorescent DNA binding dye-detergent mixture (e.g., Sybr Green I dye-detergent mixture) to lyse cells and bind to DNA is added to the reactions. Because uninfected RBCs have no DNA, only parasite DNA (in infected RBCs) is available for binding to the fluorescent dye (e.g., Sybr Green I). Samples are then incubated in the dark for a period of time (e.g., one hour), followed by measurement of levels of fluorescence. For Sybr Green I, excitation and emission wavelength are 485 and 530 nm, respectively. Fluorescence readings, which represent the amount of parasite DNA in the sample, can be plotted against the Log [drug] and fit to a curve by nonlinear regression to obtain the IC50 value for the tested compound.
(§2) An in vitro fluorescence assay for determining IC50 of antimalarial drugs was performed as previously described by Smilkstein et al. (Antimicrob. Agents Chemother., 48(5):1803-1806, 2004). This relatively low-cost procedure can be automated for high-throughput screening of the antimalarial activities of RCQs described herein. Advantageous, this method also allows the tested agent (e.g, a RCQ) to be in contact with the parasite for an entire developmental cycle without purine starvation (which occurs with the commonly used ^3H-hypoxanthine method; see, e.g., Desjardins et al., Antimicrob. Agents Chemother., 16, (6):[…], 1979).
(§3) Briefly, an initial parasitemia of approximately 0.2% was attained by addition of uninfected red blood cells to a stock culture of cells infected with Dd2 (CQ^R) or D6 (CQ^S) P. falciparum strains. A 10 mM RCQ_02 solution (in DMSO) was prepared. RCQ_02 (at a final concentration from 10^−11 to 10^−4 M) and infected red blood cells (at a final concentration of 2% (v/v)) were mixed in 100 μL samples in individual wells of a 96-well plate. Each sample was prepared in triplicate. A triplicate set of reactions containing CQ (instead of RCQ_02) was included as a control. After a 72 hour incubation period, Sybr Green I dye-detergent mixture (100 μL) was added to each reaction. The samples were further incubated for an hour in the dark, and then placed in a 96-well fluorescence plate reader (Gemini-EM, […]) and analyzed with excitation and emission wavelength bands at 485 and 530 nm, respectively. Fluorescence readings were plotted against the Log [drug], and curve fitting performed by nonlinear regression to find the IC50 value.

[4] = tested on: Dd2 (CQ^R) P. falciparum strain; assay: In vitro fluorescence (Sybr Green I) growth inhibition assay, Dd2 strain; assay type: cell-based; details: Plasmodium falciparum, DD2; Table 13; growth inhibition; read-out: IC50 (nM) Dd2 (CQ^R)
Text: as §1, §2, §3

[5] = tested on: mitogen-induced murine spleen lymphocytes; assay type: cell-based; details: mouse spleen lymphocytes; for Cytotoxicity: LC50, 72 hours + 24 hours resazurin; for cytotoxicity values: Table 14
Protocol: Mouse spleen lymphocytes were isolated from C57B1/6J mice by teasing tissues on a metallic sieve screen. […] Two hundred (200) μl isolated cells were then seeded in separate wells of a 96-well flat-bottom tissue culture plate at a density of 2×10^5 cells per well. […] After 72 hours incubation in a humidified atmosphere at 37° C. and 5% CO2, a solution of resazurin PBS was added to a final concentration 10 μM, and the plates were returned to the incubator for another 24 hours. Resazurin is a substrate which changes color in response to metabolic activity (such as, living cells). […] LC50 values were determined from plots of florescence versus drug concentration using non-linear regression by Prism software.

[6] = tested on: W2 (CQ^R) P. falciparum strain; assay: In vitro fluorescence (Sybr Green I) growth inhibition assay, W2 strain; assay type: cell-based; details: Plasmodium falciparum, W2; Table 13; growth inhibition; read-out: IC50 (nM) W2 (CQ^R)
[7] = biological target: T1, recombinant human dopamine (HEK-hDAT) transporter (Homo sapiens, UniProt Q01959); assay: Inhibition of [3H]neurotransmitter uptake, hDAT; assay type: cell-based
T1 construct: expressed in transfected cells; host or cells: HEK cells expressing hDAT (HEK-hDAT)
T1 sequence (Q01959 whole entry): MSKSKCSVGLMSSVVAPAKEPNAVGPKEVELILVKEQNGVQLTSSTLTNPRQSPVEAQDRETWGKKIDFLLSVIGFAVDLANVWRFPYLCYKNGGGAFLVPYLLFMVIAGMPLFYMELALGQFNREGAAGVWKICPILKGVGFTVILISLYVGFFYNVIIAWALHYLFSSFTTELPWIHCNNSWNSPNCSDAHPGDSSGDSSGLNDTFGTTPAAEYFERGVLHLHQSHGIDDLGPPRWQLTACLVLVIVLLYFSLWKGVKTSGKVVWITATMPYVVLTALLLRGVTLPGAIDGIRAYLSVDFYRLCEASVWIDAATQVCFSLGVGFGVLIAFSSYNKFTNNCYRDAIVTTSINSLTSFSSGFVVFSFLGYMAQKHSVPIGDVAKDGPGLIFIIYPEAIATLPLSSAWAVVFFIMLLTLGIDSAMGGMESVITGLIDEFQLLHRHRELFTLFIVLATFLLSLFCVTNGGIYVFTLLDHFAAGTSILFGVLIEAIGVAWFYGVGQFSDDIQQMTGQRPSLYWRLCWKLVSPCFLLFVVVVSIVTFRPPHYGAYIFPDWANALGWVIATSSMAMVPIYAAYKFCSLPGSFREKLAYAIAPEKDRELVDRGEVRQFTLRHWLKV
Protocol: (§4) Selected RCQs were tested for inhibition of [^3H]neurotransmitter uptake by the recombinant human serotonin (hSERT), dopamine (HEK-hDAT), and norepinephrine (hNET) transporters by a modification of the method of Eshleman et al. (J. Pharmacol. Exp. Ther., 289(2):877-885, 1999). HEK-hDAT, hSERT, and -hNET expressing cells were grown on tissue culture dishes. After removing the medium and washing the plates with Ca^2+-, Mg^2+-free phosphate buffered saline (PBS), fresh medium was added and the plates were placed in a 25° C. water bath for 5 minutes. Cells were gently lifted from the plates and cell clusters separated by trituration. 50 μL aliquots of the suspended cells were added to assay tubes containing drugs and Krebs-HEPES assay buffer in a final volume of 0.5 mL.
(§5) Competition experiments were conducted in triplicate. After a 10 minute preincubation period at 25° C., [^3H]neurotransmitter (20 nM final concentration; [^3H]DA, [^3H]5-HT, or [^3H]NE) were added, and the mixtures incubated for 10 minutes. Reactions were terminated by filtration through Wallac filtermat A filters (presoaked in 0.05% polyethylenimine), using a Tomtec cell harvester. Scintillation fluid was added to each filtered spot, and radioactivity remaining on the filters determined using a Wallac 1205 Betaplate scintillation counter.
(§6) Specific uptake was defined as the difference in uptake observed in the absence and presence of 5 μM mazindol (hDAT and hNET) or 5 μM imipramine (hSERT). Inhibition of uptake was determined by non-linear regression using Prism software.

[8] = biological target: T2, recombinant human norepinephrine (hNET) transporter (Homo sapiens, UniProt P23975); assay: Inhibition of [3H]neurotransmitter uptake, hNET; assay type: cell-based
T2 construct: expressed in transfected cells; host or cells: HEK cells expressing hNET
T2 sequence (P23975 whole entry): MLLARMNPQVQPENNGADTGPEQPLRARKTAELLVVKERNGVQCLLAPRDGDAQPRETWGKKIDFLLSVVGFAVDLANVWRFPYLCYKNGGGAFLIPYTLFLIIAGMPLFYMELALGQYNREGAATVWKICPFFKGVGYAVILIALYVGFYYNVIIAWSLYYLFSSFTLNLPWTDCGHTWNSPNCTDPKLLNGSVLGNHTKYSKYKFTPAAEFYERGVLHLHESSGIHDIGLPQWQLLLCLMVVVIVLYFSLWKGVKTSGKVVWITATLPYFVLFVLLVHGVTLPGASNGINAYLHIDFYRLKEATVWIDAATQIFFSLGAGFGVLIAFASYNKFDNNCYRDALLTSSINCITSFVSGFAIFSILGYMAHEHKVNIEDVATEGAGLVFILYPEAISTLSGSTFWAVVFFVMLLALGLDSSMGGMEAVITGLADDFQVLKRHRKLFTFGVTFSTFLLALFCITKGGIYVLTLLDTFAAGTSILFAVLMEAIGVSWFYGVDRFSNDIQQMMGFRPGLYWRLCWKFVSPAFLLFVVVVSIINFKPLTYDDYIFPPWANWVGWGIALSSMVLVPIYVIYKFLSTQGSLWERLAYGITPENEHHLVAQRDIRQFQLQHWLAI
Protocol: as §4, §5, §6

[9] = biological target: T3, recombinant human serotonin (hSERT) transporter (Homo sapiens, UniProt P31645); assay: Inhibition of [3H]neurotransmitter uptake, hSERT; assay type: cell-based
T3 construct: expressed in transfected cells; host or cells: HEK cells expressing hSERT
T3 sequence (P31645 whole entry): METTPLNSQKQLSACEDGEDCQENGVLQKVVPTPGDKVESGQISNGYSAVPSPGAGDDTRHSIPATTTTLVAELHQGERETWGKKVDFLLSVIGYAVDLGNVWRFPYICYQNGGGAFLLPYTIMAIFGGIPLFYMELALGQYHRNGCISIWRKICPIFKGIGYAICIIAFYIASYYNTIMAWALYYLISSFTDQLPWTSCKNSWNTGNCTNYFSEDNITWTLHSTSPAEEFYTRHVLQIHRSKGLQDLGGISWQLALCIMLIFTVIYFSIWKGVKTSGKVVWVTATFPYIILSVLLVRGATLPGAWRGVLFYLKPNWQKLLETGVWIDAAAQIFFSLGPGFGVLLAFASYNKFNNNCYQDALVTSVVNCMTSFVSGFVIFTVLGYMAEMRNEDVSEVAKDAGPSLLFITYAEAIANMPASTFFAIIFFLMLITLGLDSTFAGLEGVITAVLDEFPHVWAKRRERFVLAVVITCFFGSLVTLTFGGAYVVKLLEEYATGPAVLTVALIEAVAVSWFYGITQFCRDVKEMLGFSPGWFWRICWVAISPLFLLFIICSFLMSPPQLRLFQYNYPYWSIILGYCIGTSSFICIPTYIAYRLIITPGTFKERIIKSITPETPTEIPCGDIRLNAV
Protocol: as §4, §5, §6

Row | SMILES | IC50 [3] | IC50 [4] | Cytotoxicity [5] | also measured
1 | CC1(C)N=C(N)N=C(N)N1c1ccc(Cl)cc1 [Cycloguanil] |  |  |  | Drug susceptibility, strain W2 (P. falciparum strain W2): R; Drug susceptibility, strain D6 (P. falciparum strain D6): S; Drug susceptibility, strain FCR3 [1]: S; Drug susceptibility, strain Dd2 (P. falciparum strain Dd2): S
2 | OC(c1cc(C(F)(F)F)nc2c(C(F)(F)F)cccc12)C1CCCCN1 (stereo not shown) [Mefloquine] |  |  |  | Drug susceptibility, strain TM91C235 [2]: R; Drug susceptibility, strain W2 (P. falciparum strain W2): S; Drug susceptibility, strain D6 (P. falciparum strain D6): S/R; Drug susceptibility, strain FCR3 [1]: S; Drug susceptibility, strain Dd2 (P. falciparum strain Dd2): R
3 | CCN1CCN(c2ccnc3cc(Cl)ccc23)CC1 [Q_38a] | 280 nM | 400 nM |  | 
4 | C=C[C@H]1C[N@@]2CC[C@H]1C[C@H]2[C@H](O)c1ccnc2ccc(OC)cc12 [Quinine] |  |  |  | Drug susceptibility, strain TM91C235 [2]: R; Drug susceptibility, strain W2 (P. falciparum strain W2): R; Drug susceptibility, strain D6 (P. falciparum strain D6): S; Drug susceptibility, strain FCR3 [1]: S; Drug susceptibility, strain Dd2 (P. falciparum strain Dd2): R
5 | Clc1ccc2c(NCCCNCCN(c3ccccc3)c3ccccc3)ccnc2c1 [RCQ_05(desMe)] | 36 nM | 27 nM |  | 
6 | Clc1ccc2c(NCCCNCCCN(Cc3ccccc3)Cc3ccccc3)ccnc2c1 [RCQ_22] | 45 nM | 79 nM | 700 nM | cytotoxicity values [5]: 700 nM
7 | Clc1ccc2c(NCCCNCCCCN(Cc3ccccc3)Cc3ccccc3)ccnc2c1 [RCQ_26] | 7.6 nM | 10.6 nM |  | 
8 | Clc1ccc(C(c2ccccc2)N2CCN(CCNc3ccnc4cc(Cl)ccc34)CC2)cc1 (stereo not shown) [RCQ_32] | 2.6 nM | 3.4 nM | 1400 nM | IC50 [6]: 3.4 nM
9 | CN(CCCN1c2ccccc2CCc2ccccc21)CCNc1ccnc2cc(Cl)ccc12 [RCQ_33] | 8.1 nM | 9.3 nM | 1400 nM | IC50 [6]: 9.3 nM
10 | Clc1ccc2c(NCCCN3CCN(C(c4ccccc4)c4ccccc4)CC3)ccnc2c1 [RCQ_34] | 2.4 nM | 3.7 nM | 1100 nM | IC50 [6]: 2.5 nM
11 | Clc1ccc(C(c2ccccc2)N2CCN(CCCNc3ccnc4cc(Cl)ccc34)CC2)cc1 (stereo not shown) [RCQ_35] | 4 nM | 6 nM | 800 nM | IC50 [6]: 4 nM
12 | Clc1ccc2c(NCCN3CCCN(C(c4ccccc4)c4ccccc4)CC3)ccnc2c1 [RCQ_36] | 11.7 nM | 98 nM | 5300 nM | cytotoxicity values [5]: 5300 nM
13 | Fc1ccc(C(c2ccc(F)cc2)N2CCN(CCCNc3ccnc4cc(Cl)ccc34)CC2)cc1 [RCQ_37F2] | 15 nM | 19 nM | 4100 nM | 
14 | Clc1ccc2c(NCCCN3CCC(=C4c5ccccc5C=Cc5ccccc54)CC3)ccnc2c1 [RCQ_42] | 2.1 nM | 1.8 nM | 1100 nM | 
15 | Clc1ccc2c(NCCN3CCCN(C4c5ccccc5-c5ccccc54)CC3)ccnc2c1 [RCQ_72] | 9.2 nM | 9.6 nM | 2500 nM | 
16 | Clc1ccc2c(NCCCN3CCCN(C(c4ccccc4)c4ccccc4)CC3)ccnc2c1 [RCQ_73] | 4.8 nM | 4.1 nM | 700 nM | cytotoxicity values [5]: 700 nM; IC50 [7]: 1400 nM; IC50 [8]: 660 nM; IC50 [9]: 1160 nM
17 | Clc1ccc(C(c2ccccc2)N2CCCN(CCCNc3ccnc4cc(Cl)ccc34)CC2)cc1 (stereo not shown) [RCQ_74] | 15 nM | 9.8 nM | 900 nM | 
18 | Clc1ccc2c(NCCCN3CCCN(C4c5ccccc5-c5ccccc54)CC3)ccnc2c1 [RCQ_76] | 21.1 nM | 15.3 nM | 2500 nM | IC50 [7]: 1080 nM; IC50 [8]: 550 nM; IC50 [9]: 965 nM
19 | Clc1ccc2c(N3CCN(CCN(Cc4ccccc4)Cc4ccccc4)CC3)ccnc2c1 [RCQ_351] | 141 nM | 164 nM |  | 
20 | COc1ncnc(NS(=O)(=O)c2ccc(N)cc2)c1OC [Sulfadoxine] |  |  |  | Drug susceptibility, strain TM91C235 [2]: R; Drug susceptibility, strain W2 (P. falciparum strain W2): R; Drug susceptibility, strain D6 (P. falciparum strain D6): S; Drug susceptibility, strain FCR3 [1]: S; Drug susceptibility, strain Dd2 (P. falciparum strain Dd2): S
